Ends that are not written are not given here.
Legend:
[1] = Pharmacokinetics in the vitreous body after intravitreal injection; assay type: in vivo, Sprague Dawley (SD) male rats
Method: Three groups consisted of a hyaluronic acid (HA) test group, an anti-Flt1 peptide (GGNQWFI) (SEQ ID NO: 3) test group, and a test group of the hyaluronic acid-peptide conjugate with a lower peptide content as prepared from Preparation Example 3 (HA-GGNQWFI). The anti-Flt1 peptide sample and the hyaluronic acid-peptide conjugate sample were made to have an identical peptide concentration of 5 mg/ml. 10 μL of each sample solution was injected into the vitroeus body, which was sampled in 6 hours, 1 day, 3 days, 7 days, 10 days, and 14 days and stored at −20° C. until analysis. The concentration of the anti-Flt1 peptide in the vitreous body was measured with fluorescence analysis. Specifically, the vitreous body was disintegrated by using 200 μL of RIPA buffer, and then subjected to centrifugation under 14,000 g at 4° C. for 10 minutes to provide a supernatant solution. By using a spectrofluorometer (Cary Eclipse Fluorescence Spectrophotometer, Varian, Australia), the photoluminescence of each sample was measured at an excitation wave length of 280 nm and an emission wavelength of 350 nm. The vitreous body of the SD rat that was not treated at all was used as a blank control.

[2] = molecular target: T1, binding between Flt1-Fc and VEGF165 (Homo sapiens, UniProt P17948); experiment: Inhibition of binding between Flt1-Fc and VEGF165 (chemiluminescence ELISA)
T1 construct: purchased R&D Systems
T1 sequence (P17948 with tags, fused parts or gaps isoform P17948-2 limits assumed): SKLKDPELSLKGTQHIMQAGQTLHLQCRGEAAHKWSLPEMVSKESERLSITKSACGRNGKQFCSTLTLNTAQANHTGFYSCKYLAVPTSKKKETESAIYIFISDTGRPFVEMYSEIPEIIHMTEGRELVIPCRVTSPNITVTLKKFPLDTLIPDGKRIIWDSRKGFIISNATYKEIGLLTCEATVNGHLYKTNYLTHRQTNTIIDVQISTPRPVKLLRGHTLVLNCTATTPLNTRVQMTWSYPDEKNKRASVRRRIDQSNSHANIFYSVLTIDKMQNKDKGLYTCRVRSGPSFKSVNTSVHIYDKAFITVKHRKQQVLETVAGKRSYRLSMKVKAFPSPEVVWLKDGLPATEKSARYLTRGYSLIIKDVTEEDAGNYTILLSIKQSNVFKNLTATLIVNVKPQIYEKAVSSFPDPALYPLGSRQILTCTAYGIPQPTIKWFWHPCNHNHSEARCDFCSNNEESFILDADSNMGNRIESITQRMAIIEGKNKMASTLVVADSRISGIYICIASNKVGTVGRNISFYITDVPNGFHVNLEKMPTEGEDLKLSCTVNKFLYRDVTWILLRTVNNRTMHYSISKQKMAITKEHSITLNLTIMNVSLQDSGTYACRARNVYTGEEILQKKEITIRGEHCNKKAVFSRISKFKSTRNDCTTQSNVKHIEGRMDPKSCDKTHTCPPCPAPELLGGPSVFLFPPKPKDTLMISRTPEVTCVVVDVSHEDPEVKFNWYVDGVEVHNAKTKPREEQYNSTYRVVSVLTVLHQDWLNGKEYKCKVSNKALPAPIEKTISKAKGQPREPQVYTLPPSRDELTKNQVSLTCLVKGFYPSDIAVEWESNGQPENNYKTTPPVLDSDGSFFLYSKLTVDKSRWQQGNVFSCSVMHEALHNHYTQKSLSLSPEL
Method: A VEGF165 solution (with a concentration in PBS of 0.5 μg/mL) (R&D System) was put into 96-black well-plate, and reacted overnight at 4° C. to give a VEGF165-coated well. After being washed with PBS, the well was blocked with a blocking buffer (which is a BSA solution with BSA(Sigma-Aldrich) dissolved therein at a concentration of 3 wt % in a PBS buffer solution at pH 7.4) and washed again with PBS (at room temperature for 2 hours). The solutions of the anti-Flt1 peptide (GGNQWFI) (SEQ ID NO: […]) (SEQ ED NO: 3) and 500 ng/mL of Flt1-Fc (R&D systems, Minneapolis, Minn.) in a solution of BSA(Sigma-Aldrich) as dissolved in PBS (pH 7.4) at 1 wt %, or the solution of the hyaluronic acid-peptide conjugate with a lower peptide content of Preparation Example 3 test group (HA-GGNQWFI) (as prepared by conjugating 20 peptides per one HA-TBA molecule) was added to the VEGF165-coated well, and incubated at room temperature for one hour. […] Then, after the well was washed with a PBS comprising 0.05 wt % of Tween 20 three times and washed with a PBS once, the amount of the conjugated Flt1-Fc was measured with BM chemiluminescence ELISA substrate system (Victor 3 luminometer, PerkinElmer, Mass.). […]
The luminescence value of the positive control group without being treated with anti-FR1 peptide was set to be 100% and other data were normalized.

[3] = system: vascular hyperpermeability due to diabetic retinopathy; experiment: Vascular hyperpermeability due to diabetic retinopathy, streptozotocin, dextran-FITC fluorescence (Experimental Example 10); assay type: in vivo, Sprague Dawley (SD) male rats; details: hyaluronic acid test group = 100%; intravitreal 10 μL, peptide 5 mg/ml; four weeks after streptozotocin
Excerpt: Four groups consisted of a hyaluronic acid test group, an anti-Flt1 peptide (GGNQWFI) (SEQ ID NO: 3) test group, a test group of the hyaluronic acid-peptide conjugate with a lower peptide content (with 20 peptides being conjugated per one molecule of HA-TBA) as prepared from Preparation Example 3 (HA-GGNQWFI), and a test group of the hyaluronic acid-peptide conjugate with a higher peptide content (with 28 peptides being conjugated per one molecule of HA-TBA) as prepared from Preparation Example 3(HA-GGNQWFI(2)). The anti-Flt1 peptide sample and the hyaluronic acid-peptide conjugate samples were made to have an identical peptide concentration of 5 mg/ml. First, each rat was injected intraperitonially with 60 mg/kg of streptozotocin dissolved in 10 mM citrate buffer at pH 4.5 in order for diabetes to be induced. In three days after the injection of streptozotocin, the rat was determined to develop diabetes when its serum concentration of glucose was at least 300 mg/dL. In a week after the injection of streptozotocin, 10 μL of each sample solution was injected into the vitroeus body. In four weeks after the injection of streptozotocin, the effect of inhibiting vascular hyperpermeability due to diabetic retinopathy was determined by the fluorescence microscopic analysis with using dextran-FITC (MW=10,000) in the same manner as set forth in Experimental Example 7-1.

[4] = system: corneal neovascularization; experiment: Corneal neovascularization after silver nitrate cauterization (Experimental Example 8); assay type: in vivo, Albino Sprague Dawley male rats; details: rat cornea, subconjunctival 20 μL; Avastin 10 mg/ml, peptide and conjugate […] peptide; NV control 90.8±5%
Method: All animal tests including this experiment were conducted in compliance with the guidelines of the Catholic University of Korea and the principles of laboratory animal care; NIH publication No. 85-23 revised in 1985.
The rat was put under anesthesia by an intra-peritoneal injection of a mixed solution of 20 mg/kg of ketamine hydrochloride and 2.5 mg/kg of xylazine hydrochloride. […] In 3 days after the cauterization, subconjunctival administration was conducted with 20 μL of each of 4 sample solutions (a normal control group, NV control (neovascularization control: a control group wherein angiogenesis was made to occur and no drug was treated thereon), a solution comprising Avastin (Roche) dissolved in PBS at a concentration of 10 mg/ml, a solution comprising anti-Flt1 peptide (GGNQWFI) (SEQ ID NO: 3) dissolved in PBS at a concentration of 2.5 mg/ml, and a solution comprising the hyaluronic acid-peptide conjugate with a lower peptide concentration obtained from Preparation Example 3 as dissolved in PBS at a concentration of 2.5 mg/ml based on the content of anti-Flt1 peptide). […] The obtained images were subjected to quantitative analysis with Image J program (Ver. 1.38, National Institute of Health, MD).

[5] = rat, single intravitreal 10 μL, peptide 5 mg/ml
[6] = male, Sprague Dawley (SD), vitreous body, 50 µg, rat, single intravitreal 10 μL, peptide 5 mg/ml

Row | inhibition of the bonding between VEGF165 and Flt1-Fc, up to ([2]; dose-dependent, 20-20000 nM peptide, positive control set to 100%) | Cmax [1, 6] [µg/mL] | Tmax [1, 6] [h] | inhibition of the bonding between VEGF165 and Flt1-Fc ([2]; at 200 nM) | Substance | Cmax in the vitreous body [1, 5] [mg/mL] | Tmax in the vitreous body [1, 5] [h] | time for which the concentration in the vitreous body was maintained above base line [1, 5] | AUC / bioavailability (AUC/dose) in the vitreous body ([1]; same dose, compared with anti-Flt1 peptide) | average intensity of the fluorescence of retina (dextran-FITC) [3] [%] | average ratio of the neovascular area [4] [%]
1 | about 32% |  |  |  | HA-GGNQWFI: hyaluronic acid (MW 100 kDa) conjugated with GGNQWFI, 20 peptides per one molecule of HA-TBA (also: conjugated to hyaluronic acid, about 20 peptides per HA) | 1.6 ± 0.6 | 6 | at least 14 days | higher AUC than that of the anti-Flt1 peptide | 58.4±7.8 | 17.4±5.6
2 |  | 800 ± 700 | 24 | failed to inhibit | GGNQWFI [anti-Flt1 peptide, GGNQWFI] |  |  | < 10 days |  | 79.0±9.2 | 27±5.7
